Test results as given in PMC6293271, “Bactericidal/Permeability-Increasing Protein Is an Enhancer of Bacterial Lipoprotein Recognition” (Frontiers in Immunology, 2018).
Ends that are not written are not given here. * marks the point of attachment. Palmitoyl = CCCCCCCCCCCCCCCC(=O)*

Tests used:
rBPI [1] = test system: T1, rBPI; assay: BPI microtiter binding assay, LPS biotin-coated plates; design: species or system human; settings: ligand pre-incubated with 20 nM rBPI
T1 construct: the human BPI (aa 32-487) and a C-terminal FLAG Tag; HA signal peptide (N); made in house; host or cells: HEK293T
Method: BPI binding assays were performed using a protocol published for LBP ([9]) with some modifications. Streptavidin-coated 96-well plates (Nunc^TM Immobilizer^TM Streptavidin F96 clear, Thermo Fisher Scientific, Waltham, MA, USA) were coated with LPS biotin (2 μg/ml) or Pam2CSK4 biotin (1 μg/ml) in PBS overnight at 23°C with gentle agitation. After washing with assay buffer (150 mM NaCl, 50 mM HEPES, Sigma Aldrich, Taufkirchen, Germany) containing 0.01% Casein, plates were blocked with 10 g/l BSA (Sigma Aldrich, Taufkirchen, Germany) at 37°C and washed again. Thereafter, ligands were preincubated with 20 nM BPI in assay buffer containing 1 g/l BSA for 30 min and loaded onto the plates. In case of bacterial lysates, 0.05% Tween 20 was added for preincubation. After incubation for 1 h at 37°C, three washing steps were performed. Bound BPI was detected by murine anti-human BPI monoclonal antibody (Cat.-No. HM2042, Hycult Biotech, Uden, Netherlands) and HRP-conjugated rabbit anti-mouse IgG (Cat.-No. 315-035-048, Dianova, Hamburg, Germany). TMB (BD OptEIA^TM TMB Substrate Reagent Set, BD Biosciences, Heidelberg, Germany) was used as a substrate for peroxidase. After addition of 1 N HCl, absorbance was measured at 450 nm. Technical replicates were performed at least two times using exactly the same reagents and are not indicated for the BPI microtiter binding assay. Biological replicates shown here are experiments independently performed by using separately formulated solutions of the reagents.

rBPI [2] = test system: T1, rBPI; assay: NanoDSF thermal stability of rBPI with ligand; assay type: binding, human; settings: 5 μM rBPI, 30 μM ligand, PBS pH 7.4
Method: For thermal unfolding experiments, rBPI protein was diluted to a final concentration of 5 μM in PBS pH 7.4, either containing a ligand at 30 μM concentration [(R)-Pam3CSK4, (R)-FSL-1 or LPS EC] or in the absence of a ligand. For each condition, 10 μl of sample per capillary were prepared. The samples were loaded into UV capillaries and experiments were carried out using the Prometheus NT.48 (NanoTemper Technologies, Munich, Germany). The temperature gradient was set to an increase of 1°C/min with a range from 20 to 90°C. Protein unfolding was measured by detecting the temperature-dependent change in tryptophan fluorescence at emission wavelength of 350 nm (Figure 3E, upper panel). Melting temperature (Tm) was determined by detecting the maximum of the first derivative of the fluorescence wavelength 350 nm. For this purpose, an 8th order polynomial fit was calculated for the transition region (Figure 3E, lower panel). Next, the first derivative of the fit was formed and the peak position (at Tm) was determined. Finally, Tm shift (Tm protein alone — Tm protein with ligand) upon addition of ligand to the protein (in°C) was calculated. Technical and biological replicates were defined as described for BPI microtiter binding assays.

BPIN(A) = molecular target: T2, BPIN(A) (Homo sapiens, UniProt P17213); assay: MicroScale Thermophoresis (MST) binding assay with neutrophil BPI; settings: 25°C
T2 construct: Bactericidal/permeability-increasing protein (BPI) extracted from neutrophils; purchased Athens Research and Technology; host or cells: neutrophils
T2 sequence (P17213 32-487): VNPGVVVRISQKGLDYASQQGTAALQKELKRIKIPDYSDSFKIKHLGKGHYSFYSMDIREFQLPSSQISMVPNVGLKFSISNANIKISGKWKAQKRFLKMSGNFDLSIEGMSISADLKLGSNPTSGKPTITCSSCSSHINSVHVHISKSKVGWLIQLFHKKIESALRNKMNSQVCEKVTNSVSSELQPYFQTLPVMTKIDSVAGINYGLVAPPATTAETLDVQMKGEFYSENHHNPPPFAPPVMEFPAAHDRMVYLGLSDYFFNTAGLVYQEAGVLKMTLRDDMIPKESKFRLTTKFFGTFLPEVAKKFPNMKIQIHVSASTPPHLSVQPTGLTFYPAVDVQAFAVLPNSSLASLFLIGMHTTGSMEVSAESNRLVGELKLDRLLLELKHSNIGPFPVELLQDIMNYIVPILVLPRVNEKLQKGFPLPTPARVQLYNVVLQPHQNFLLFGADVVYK
Method: BPIN(A) and rBPI were labeled with NT647 in PBS pH 7.4 (Monolith NT™ Protein Labeling Kit RED—NHS, NanoTemper Technologies, Munich, Germany). Concentration of labeled protein was determined using the NanoDrop (ThermoScientific, Wilmington, NC, USA) and Bradford assay (Promega, Mannheim, Germany). MicroScale Thermophoresis (MST) binding experiments were carried out with 5 nM labeled protein in binding buffer (10 mM HEPES pH 7.4, 150 mM NaCl, 0.1% Tween) with 0.05–1,679 nM of LPS EC or 0.196–6,436 nM of Pam3CSK4 or 0.61–20,000 nM of LTA SAΔlgt and LTA SPΔlgt or of >0.61–20,000 nM WTA SPΔlgt at 20–40% MST power, 20% LED power in premium capillaries on a Monolith NT.115 pico device at 25°C (NanoTemper Technologies, Munich, Germany). For MST binding assays based on Pam3CSK4 Fluorescein, 20 nM of the fluorescent molecule in binding buffer (10 mM HEPES pH 7.4, 150 mM NaCl, 0.1% Tween) was supplied with 0.018–600 nM BPIN(A) and measured at 40% MST power, 10% LED power in premium capillaries on a Monolith NT.115 pico device at 25°C (NanoTemper Technologies, Munich, Germany).
MST timetraces were recorded and the temperature jump or, respectively, thermophoresis was analyzed. The recorded fluorescence was plotted against the ligand concentration and curve fitting was performed with KaleidaGraph 4.5 using the dissocation constant (KD) fit formula derived from the law of mass action. […]

TLR2 = test system: TLR2; design: method as in PMID 15193414; settings: cited from earlier work

Molecule | inhibition of binding of rBPI to LPS biotin-coated wells (rBPI [1]) | TLR2-stimulatory potential (TLR2) | other results
CCCCCCCCCCCCCCCC(=O)OCC(CO)OC(=O)CCCCCCCCCCCCCCC (stereo not shown) [DAG, Diacyl-glycerol 16:0] | no inhibitory binding |  | 
(R)-Pam2CSK4: di-acylated lipopeptide; acyl-chain deleted at the amino-terminal cysteine of the residual peptide (CSKKKK; di-acylated: diacyl-thioglycerol motif on the cysteine; no acyl-chain at the amino-terminal cysteine of the residual peptide) | lower inhibitory potential |  | change in melting temperature (Tm) of rBPI (rBPI [2]): decrease in Tm
Pam3CSK4 Fluorescein: Pam3CSK4, covalently labeled with fluorescein (CSKKKK) |  |  | Kd (BPIN(A); 20 nM Pam3CSK4 Fluorescein incubated with increasing concentrations of unlabeled BPIN(A)): 0.0203 µM
Pam3CSK4: tri-acylated lipopeptide; racemate of (R)-Pam3CSK4 and (S)-Pam3CSK4 (Palmitoyl-CSKKKK; not fully specified (residue 1); also: racemate of (R) and (S) forms at the glycerol centre) | inhibited binding of rBPI to LPS in a dose-dependent manner |  | Kd (BPIN(A); BPIN(A) NT647 (5 nM) incubated with increasing concentrations of ligand): 0.0667 µM
Pam 2^* CSK4: di-acylated lipopeptide; acyl-chain deleted at the O-2-position of the thioglycerol core (CSKKKK; also: di-acylated lipopeptide, acyl chain deleted at O-2 of thioglycerol core) | lower inhibitory potential | lack TLR2-stimulatory potential | 
PamCSK4: mono-acylated lipopeptide; glycerol-core with two fatty acids deleted, peptide with only one fatty acid (Palmitoyl-CSKKKK) | not enough to completely block the inhibitory potential | lack TLR2-stimulatory potential | 
